Results published in patent publication US20060058286A1, “Methods of treating HIV infection” (priority 2004, published 2006).

Assays:
HIV-1 NL4-3 [1] = assay: Two-drug combination study with Compound 1 (combination indices); format: cell-based; details: for Combination Indices at 50% HIV Inhibition (Confidence Interval) / Combination Indices at 75% HIV Inhibition (Confidence Interval) / Combination Indices at 90% HIV Inhibition (Confidence Interval): 95% CI in parentheses; for Overall Result: overall antiviral effect of the two-drug combination with Compound 1, all ratios and effective levels
Procedure: (§1) Virus and cell lines. The T-cell line, MT-2 was obtained through the AIDS Research and Reference Reagent Program, NIAID and was contributed by Dr. D. Richman. The cell line was cultured in RPMI 1640 medium supplemented with 10% fetal bovine serum, 2 mM L-glutamine and sub-cultured twice a week. The NL4-3 strain of HIV-1 was obtained from the AIDS Research and Reference Reagent Program. Both virus stocks were amplified and titered in MT-2 cells using a virus infectivity assay.
(§2) Drug Susceptibility and Cytotoxicity Assays. For drug susceptibility assays, MT-2 cells were infected with HIV-1 NL4-3 at an MOI of 0.001, and seeded into 96-well microtiter plates (2.5×10^5 cells/ml) containing serial dilutions of test compounds. […] Each drug ratio consisted of an array of 3-fold serial dilutions, and was performed in quadruplicate. The plates were incubated at 37° C./5% CO2. The MT-2 cells infected with HIV-1 NL4-3 were incubated for 5 days. On day-five post-infection, 20 μl from each well was harvested and quantitated by a reverse transcriptase (RT) assay or an MTS assay. Cytotoxicity assays were performed using uninfected cells, exposed to the same drug combinations, and incubated for five days. Cell viability was determined by an XTT assay. The CC50 values were calculated by using the exponential form of the median effect equation as mentioned below for calculation of EC50.
Analysis of Drug Combination Effects. For determination of CI values, drugs were diluted in a fixed ratio and multiple ratios were analyzed. The drug serial dilutions spanned a range of concentrations near the EC50 value of each compound, so that equivalent antiviral activities could be compared. Concentration-response curves were estimated for each individual drug and every combination using the median-effect equation. The equation was fit using a nonlinear regression routine (Proc Nlin) in PC SAS version 8.01 (SAS Institute Inc., SAS Version 8.01, Cary, N.C.: SAS Institute Inc., 1990).
(§3) In this equation, Fa stands for “fraction affected,” and represents the fraction of the viral load that has been inactivated.
To assess antiviral effects of different drug combination treatments, combination indices (CIs) were calculated according to Chou and Rideout. The combination index was computed as CI=[D]1/[Dm]1+[D]2/[Dm]2
In this equation [Dm]1 and [Dm]2 are the concentrations of drugs that would individually produce a specific level of effect, while [D]1 and [D]2 are the concentrations of drugs in combination that would produce the same level of effect.
Theoretically, additivity is implied if the CI is equal to one, synergy if the CI is less than one, and antagonism if the CI is greater than one. […] At best, we can construct a range that contains the likely values for the CI, given the noise in the data. In this report, these ranges are reported in parentheses next to each point estimate of the CI. […] If the range fell entirely above 1.0, we would infer antagonistic behavior. If the range were to include 1.0, we would infer additivity.

HIV-1 NL4-3 [2] = assay: microbe, parasite or virus in culture
Procedure: as §1, §2, §3
In carrying out the combination experiments below, the EC50 for Compound 1 and each comparator compound was determined during the course of each study, and used in the subsequent data analysis.

[3] = combination with Compound 1, EC50 ratio 1:1 (Compound 1:comparator)
[4] = combination with Compound 1, EC50 ratio 1:2.5 (Compound 1:comparator)
[5] = combination with Compound 1, EC50 ratio 2.5:1 (Compound 1:comparator)
[6] = Human immunodeficiency virus 1, NL43, MT2, 120 h

Row | Compound | Combination Indices at 50% HIV Inhibition (Confidence Interval) (HIV-1 NL4-3 [1]; [3]) | Combination Indices at 75% HIV Inhibition (Confidence Interval) (HIV-1 NL4-3 [1]; [3]) | Combination Indices at 90% HIV Inhibition (Confidence Interval) (HIV-1 NL4-3 [1]; [3]) | Combination Indices at 50% HIV Inhibition (Confidence Interval) (HIV-1 NL4-3 [1]; [4]) | Combination Indices at 75% HIV Inhibition (Confidence Interval) (HIV-1 NL4-3 [1]; [4]) | Combination Indices at 90% HIV Inhibition (Confidence Interval) (HIV-1 NL4-3 [1]; [4]) | Combination Indices at 50% HIV Inhibition (Confidence Interval) (HIV-1 NL4-3 [1]; [5]) | Combination Indices at 75% HIV Inhibition (Confidence Interval) (HIV-1 NL4-3 [1]; [5]) | Combination Indices at 90% HIV Inhibition (Confidence Interval) (HIV-1 NL4-3 [1]; [5]) | Overall Result (HIV-1 NL4-3 [1]) | EC50 (HIV-1 NL4-3 [2]; [6]) | further results
1 | enfuvirtide | 0.74 (0.58, 0.89) | 0.95 (0.67, 1.24) | 1.25 (0.66, 1.83) | 0.72 (0.55, 0.89) | 0.69 (0.46, 0.91) | 0.68 (0.33, 1.02) | 1.04 (0.82, 1.27) | 0.95 (0.66, 1.24) | 0.87 (0.45, 1.29) | Additive- |  | Overall Result (HIV-1 NL4-3 [1]; listed as T-20): synergistic to additive; EC50 (HIV-1 NL4-3 [2]; NL4-3): 7 nM
2 | CC(C)(C)NC(=O)[C@@H]1C[C@@H]2CCCC[C@@H]2CN1C[C@@H](O)[C@H](Cc1ccccc1)NC(=O)[C@H](CC(N)=O)NC(=O)c1ccc2ccccc2n1 [Saquinavir, saquinavir] | 0.65 (0.49, 0.80) | 0.85 (0.56, 1.14) | 1.20 (0.55, 1.84) | 0.55 (0.42, 0.68) | 0.97 (0.65, 1.29) | 1.81 (0.86, 2.77) | 0.47 (0.38, 0.56) | 0.60 (0.44, 0.75) |  | Additive- | 11 nM | Overall Result (HIV-1 NL4-3 [1]; listed as saquinavir): additive to synergistic
3 | CC(C)Nc1cccnc1N1CCN(C(=O)c2cc3cc(NS(C)(=O)=O)ccc3[nH]2)CC1 [Delavirdine, delavirdine] | 0.64 (0.50, 0.78) | 0.59 (0.41, 0.78) | 0.58 (0.30, 0.85) | 0.56 (0.47, 0.64) | 0.41 (0.32, 0.50) | 0.31 (0.20, 0.41) | 0.52 (0.44, 0.60) | 0.44 (0.34, 0.54) | 0.39 (0.26, 0.53) | Synergistic | 50 nM | Overall Result (HIV-1 NL4-3 [1]; listed as delavirdine): strong synergistic effects
4 | Cc1ccnc2c1NC(=O)c1cccnc1N2C1CC1 [Nevirapine, nevirapine] | 0.51 (0.39, 0.63) | 0.30 (0.20, 0.40) | 0.18 (0.08, 0.27) | 0.63 (0.42, 0.83) | 0.40 (0.22, 0.59) | 0.26 (0.07, 0.46) | 0.52 (0.39, 0.64) | 0.32 (0.22, 0.43) | 0.21 (0.10, 0.31) | Synergistic | 85 nM | Overall Result (HIV-1 NL4-3 [1]; listed as nevirapine): strong synergistic effects
5 | CC(C)(C)NC(=O)[C@@H]1CN(Cc2cccnc2)CCN1C[C@@H](O)C[C@@H](Cc1ccccc1)C(=O)N[C@H]1c2ccccc2C[C@H]1O [Indinavir, indinavir] | 0.64 (0.42, 0.85) | 1.17 (0.63, 1.71) | 2.15 (0.53, 3.78) | 0.92 (0.68, 1.16) | 1.07 (0.68, 1.46) | 1.24 (0.51, 1.97) | 0.41 (0.29, 0.53) | 0.70 (0.42, 0.97) | 1.19 (0.40, 1.97) | Additive- | 6 nM | Overall Result (HIV-1 NL4-3 [1]; listed as indinavir): additive to synergistic
6 | Cc1cn([C@H]2C=C[C@@H](CO)O2)c(=O)[nH]c1=O [Stavudine, stavudine] | 0.63 (0.42, 0.85) | 0.51 (0.29, 0.74) | 0.43 (0.10, 0.75) | 1.32 (0.94, 1.69) | 0.68 (0.41, 0.94) | 0.36 (0.12, 0.59) | 1.20 (0.88, 1.51) | 0.71 (0.45, 0.96) | 0.43 (0.17, 0.68) | Additive- | 55 nM | combination effect at the 50% effective level (HIV-1 NL4-3 [1]; combination with Compound 1): additivity; combination effect at the 75% and 90% effective levels (HIV-1 NL4-3 [1]; combination with Compound 1): synergy; Overall Result (HIV-1 NL4-3 [1]; listed as stavudine): additive-synergistic
7 | O=c1[nH]cnc2c1ncn2[C@H]1CC[C@@H](CO)O1 [Didanosine, didanosine] | 0.20 (0.14, 0.25) | 0.27 (0.17, 0.37) | 0.40 (0.16, 0.64) | 0.16 (0.12, 0.20) | 0.21 (0.14, 0.28) | 0.31 (0.13, 0.49) | 0.31 (0.27, 0.36) | 0.32 (0.26, 0.39) | 0.35 (0.23, 0.47) | Synergistic | 270 nM | Overall Result (HIV-1 NL4-3 [1]; listed as didanosine): synergistic
8 | CC(C)CN(C[C@@H](O)[C@H](Cc1ccccc1)NC(=O)O[C@H]1CCOC1)S(=O)(=O)c1ccc(N)cc1 [Amprenavir, amprenavir] | 0.37 (0.24, 0.49) | 0.53 (0.28, 0.78) | 0.95 (0.24, 1.67) | 0.37 (0.27, 0.48) | 0.56 (0.33, 0.78) | 1.05 (0.38, 1.71) | 1.17 (0.91, 1.43) | 0.87 (0.60, 1.13) | 0.74 (0.38, 1.10) | Additive- | 42 nM | Overall Result (HIV-1 NL4-3 [1]; listed as amprenavir): additive to synergistic
9 | Cc1cccc(C)c1OCC(=O)N[C@@H](Cc1ccccc1)[C@@H](O)C[C@H](Cc1ccccc1)NC(=O)[C@H](C(C)C)N1CCCNC1=O [Lopinavir, lopinavir] | 0.16 (0.11, 0.22) | 0.16 (0.08, 0.24) | 0.16 (0.04, 0.28) |  | 0.57 (0.46 0.68) | 0.32 (0.22, 0.42) | 1.60 (1.28, 1.92) | 0.78 (0.56, 1.00) | 0.38 (0.22, 0.55) | Additive- | 14 nM | Overall Result (HIV-1 NL4-3 [1]; listed as lopinavir): additive to synergistic
